Where a SMILES comes first, the peptide text is derived from it. [ ]: non-standard residue; d: D form. β3hW = N[C@H](CC(=O)O)Cc1c[nH]c2ccccc12; β3hY = N[C@H](CC(=O)O)Cc1ccc(O)cc1; β3hR = N=C(N)NCCC[C@H](N)CC(=O)O; β3hF = N[C@H](CC(=O)O)Cc1ccccc1; β3hQ = NC(=O)CC[C@H](N)CC(=O)O; βAla = NCCC(=O)O
Biological target: Bcl-xL (Homo sapiens, UniProt Q07817)
Assay: Competition fluorescence polarization
Type: binding
Details: competition FP Ki, relative to α-peptide 1

Bcl-xL, sequence (Q07817 whole entry): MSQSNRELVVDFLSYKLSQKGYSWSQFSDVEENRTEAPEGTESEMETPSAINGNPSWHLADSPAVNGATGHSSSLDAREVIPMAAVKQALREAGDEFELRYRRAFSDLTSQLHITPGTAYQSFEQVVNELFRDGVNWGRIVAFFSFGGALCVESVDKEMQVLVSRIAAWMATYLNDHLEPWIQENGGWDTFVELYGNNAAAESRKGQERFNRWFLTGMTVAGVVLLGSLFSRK

Compound: CC[C@H](C)[C@H](NC(C)=O)C(=O)N[C@H](CC(=O)N[C@H](C(=O)N[C@@H](C)C(=O)N[C@@H](CCC(N)=O)CC(=O)N[C@@H](CCC(=O)O)C(=O)N[C@@H](CC(C)C)C(=O)N[C@@H](CCCNC(=N)N)CC(=O)N[C@@H](CCCNC(=N)N)C(=O)N[C@H](C(=O)NCCC(=O)N[C@@H](CC(=O)O)C(=O)N[C@@H](CCC(=O)O)C(=O)N[C@H](CC(=O)N[C@@H](CC(N)=O)C(=O)N[C@@H](C)C(=O)N[C@H](CC(=O)N[C@@H](Cc1ccc(O)cc1)C(N)=O)Cc1ccc(O)cc1)Cc1ccccc1)[C@@H](C)CC)[C@@H](C)CC)Cc1c[nH]c2ccccc12 [3c] (Ac-I[β3hW]IA[β3hQ]EL[β3hR]RI[βAla]DE[β3hF]NA[β3hY]Y-NH2)
- Affinity for Bcl-xL, fold weaker than observed for 1: 23 fold
